For one assay, the target named is T1, Mouse M4 (Mus musculus, UniProt P32211).
T1 construct: expressed in transfected cells; host or cells: CHO-K1 (ATCC), stably expressing M4 and Gqi5
T1 sequence (P32211 1-479): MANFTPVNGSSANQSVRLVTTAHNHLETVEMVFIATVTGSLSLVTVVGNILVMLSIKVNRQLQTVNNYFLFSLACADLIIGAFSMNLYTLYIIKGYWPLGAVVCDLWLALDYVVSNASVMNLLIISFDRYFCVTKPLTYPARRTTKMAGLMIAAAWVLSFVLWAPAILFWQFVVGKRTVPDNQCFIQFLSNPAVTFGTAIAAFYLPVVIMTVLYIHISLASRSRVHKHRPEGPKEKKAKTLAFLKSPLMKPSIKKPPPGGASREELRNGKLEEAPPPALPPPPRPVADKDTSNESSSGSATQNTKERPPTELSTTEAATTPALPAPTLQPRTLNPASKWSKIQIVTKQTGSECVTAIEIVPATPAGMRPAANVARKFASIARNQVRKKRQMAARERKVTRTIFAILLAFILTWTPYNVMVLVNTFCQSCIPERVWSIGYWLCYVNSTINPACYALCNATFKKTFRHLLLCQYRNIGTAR
As to the kind of experiment: mAChR M4 cell-based functional calcium flux assay (mouse M4/Gqi5/CHO cells). Particulars: for Emin (mouse M4): % ACh maximum at 30 μM. As to the method: Human, rat, or mouse M4. cDNA, along with the chimeric G protein Gqi5, were transfected into Chinese hamster ovary (CHO-K1) cells purchased from the American Type Culture Collection using Lipofectamine2000. M4/Gqi5/CHO cells were grown in Ham's F-12 medium containing 10% heat-inactivated fetal bovine serum (FBS), 20 mM HEPES, 500 μg/mL G418 sulfate, and 200 μg/mL Hygromycin B.
For high throughput measurement of agonist-evoked increases in intracellular calcium, CHO-K1 cells stably expressing muscarinic receptors were plated in growth medium lacking G418 and hygromycin at 15,000 cells/20 μL/well in Greiner 384-well black-walled, tissue culture (TC)-treated, clear-bottom plates (VWR). Cells were incubated overnight at 37° C. and 5% CO2. The next day, cells were washed using an ELX 405 (BioTek) with assay buffer; the final volume was then aspirated to 20 μL. Next, 20 μL of a 2.3 μM stock of Fluo-4/acetoxymethyl ester (Invitrogen, Carlsbad, CA), prepared as a 2.3 mM stock in DMSO and mixed in a 1:1 ratio with 10% (w/v) Pluronic F-127 and diluted in assay buffer, was added to the wells and the cell plates were incubated for 50 min at 37° C. and 5% CO2. Dye was removed by washing with the ELX 405 and the final volume was aspirated to 20 μL. Compound master plates were formatted in a 10 point concentration-response curve (CRC) format (1:3 dilutions) in 100% DMSO with a starting concentration of 10 or 1 mM using a BRAVO liquid handler (Agilent). Test compound CRCs were then transferred to daughter plates (240 nL) using the Echo acoustic plate reformatter (Labcyte, Sunnyvale, CA) and then diluted into assay buffer (40 μL) to a 2× stock using a Thermo Fisher Combi (Thermo Fisher Scientific, Waltham, MA).
Calcium flux was measured using the Functional Drug Screening System (FDSS) 6000 or 7000 (Hamamatsu Corporation, Tokyo, Japan) as an increase in the fluorescent static ratio. Compounds were applied to cells (20 μL, 2×) using the automated system of the FDSS at 2 seconds into the protocol and the data were collected at 1 Hz. At 143 s, 10 μL of an EC20 concentration of the muscarinic receptor agonist acetylcholine was added (5×), followed by the addition of 12 μL of an EC80 concentration of acetylcholine at the 268 s time point (5×). Agonist activity was analyzed as a concentration-dependent increase in calcium mobilization upon compound addition. Positive allosteric modulator activity was analyzed as a concentration-dependent increase in the EC20 acetylcholine response. Antagonist activity was analyzed as a concentration-dependent decrease in the EC80 acetylcholine response; for the purposes of the tables herein, an IC50 (inhibitory concentration 50) was calculated as a concentration-dependent decrease of the response elicited by an EC80 concentration of acetylcholine. Concentration-response curves were generated using a four-parameter logistical equation in XLFit curve fitting software (IDBS, Bridgewater, NJ) for Excel (Microsoft, Redmond, WA) or Prism (GraphPad Software, Inc., San Diego, CA) or the Dotmatics software platform (Dotmatics, Bishop's Stortford, UK).
Compounds were synthesized as described above. Activity (IC50 and Emin) was determined in the mAChR M4 cell-based functional assay as described above and the data are shown in Table 2 and Table 3. The compound number corresponds to the compound numbers used in the examples and Tables 1 and 1.1.
(In general: A change in cytosolic calcium serves as a functional read-out for many receptors and channels.)

Assay [1] concerns haloperidol-induced catalepsy. Briefly: haloperidol-induced catalepsy, a model of parkinsonian motor disability. The format is in vivo, mice. From the text:
Furthermore, haloperidol-induced catalepsy, a model of parkinsonian motor disability, is reduced in M4 knockout mice as compared to wild-type controls. […] The reversal by scopolamine was uncommonly robust and more pronounced than we observe with agents targeting a number of other targets being evaluated for potential antiparkinsonian effects, including metabotropic glutamate (mGlu) receptors mGlu4 or mGlu5, A2A adenosine receptors, and NMDA receptors. […] Taken together with the extensive studies of M4 modulation of basal ganglia and motor function, these studies provide compelling evidence that M4 is the dominant mAChR subtype involved in the antiparkinsonian effects of non-selective mAChR antagonists and provide support for discovery and development of selective M4 antagonists for treatment of neurodegenerative disease such as PD, dystonia, tardive dyskinesia and other movement disorders.

[2] abbreviates: decrease of the response to an EC80 concentration of acetylcholine.

As usually defined, the IC50 is the concentration at which inhibition is half-maximal. In the case of `CC(C)(C)CCN1CCC2(CC1)CC2CNc1ccc2nccn2n1` (stereo not shown) [Compound 102, N-[[6-(3,3-dimethylbutyl)-6-azaspiro[2.5]octan-2-yl]methyl]imidazo[1,2-b]pyridazin-6-amine], on Mouse M4, the “Emin (mouse M4)” value stood at 8%. The IC50 at Mouse M4 (setting [2]) came to 1.29 µM.
Consider `c1cc2nncn2nc1NCC1CC12CCN(CC1CCCCC1)CC2` (stereo not shown) [Compound 105, N-[[6-(cyclohexylmethyl)-6-azaspiro[2.5]octan-2-yl]methyl]-[1,2,4]triazolo[4,3-b]pyridazin-6-amine], for which the “Emin (mouse M4)” value at Mouse M4 was found to be 37%. Besides, the IC50 on Mouse M4 (in μM, decrease of the EC80 acetylcholine response) was above 10 µM.
Take `CC(C)(C)CCN1CCC2(CC1)CC2CNc1ccc2nncn2n1` (stereo not shown) [Compound 104, N-[[6-(3,3-dimethylbutyl)-6-azaspiro[2.5]octan-2-yl]methyl]-[1,2,4]triazolo[4,3-b]pyridazin-6-amine]: the “Emin (mouse M4)” value at Mouse M4 is reported as 17%. Also, the 50% inhibitory concentration (IC50) on Mouse M4 (setting [2]) is 2.82 µM.
For the molecule `CN1[C@@H]2C[C@@H](OC(=O)[C@H](CO)c3ccccc3)C[C@H]1[C@@H]1O[C@@H]12` [scopolamine], the “reduction of haloperidol-induced catalepsy” value in assay [1] (M4 KO mice) is recorded as “ineffective”. For the same molecule, the “reversal of haloperidol-induced catalepsy” value in assay [1] (WT mice) is given as “completely reversed”.
Take `Fc1ccc(Cl)c(-c2ccc(NC[C@@H]3CC34CCN(CC3CCCOC3)CC4)nn2)c1` (stereo partly drawn) [Compound 106, (R)-6-(2-chloro-5-fluoro-phenyl)-N-[[6-(tetrahydropyran-3-ylmethyl)-6-azaspiro[2.5]octan-2-yl]methyl]pyridazin-3-amine]: the “Emin (mouse M4)” value at Mouse M4 is 9%. Also, the half-maximal inhibitory concentration (IC50) on Mouse M4 (setting [2]) worked out at 0.68 µM.
On to `Fc1ccc(Cl)c(-c2ccc(OCC3CC34CCN(CC3CC5C=CC3C5)CC4)nn2)c1` (stereo not shown) [Compound 86, 6-(5-bicyclo[2.2.1]hept-2-enylmethyl)-2-[[6-(2-chloro-5-fluoro-phenyl)pyridazin-3-yl]oxymethyl]-6-azaspiro[2.5]octane], for which the “Emin (mouse M4)” value at Mouse M4 is on record as 3%. Besides, the concentration for half-maximal inhibition (IC50) at Mouse M4 (setting [2]) came to 2.81 µM.
On to `CC(C)(C)CCN1CCC2(CC1)CC2CNc1ccc(N2CCCCC2)nn1` (stereo not shown) [Compound 78, N-[[6-(3,3-dimethylbutyl)-6-azaspiro[2.5]octan-2-yl]methyl]-6-(1-piperidyl)pyridazin-3-amine], for which the “Emin (mouse M4)” value on Mouse M4 was found to be 8%. Further, the IC50 at Mouse M4 (setting [2]) was found to be 1.24 µM.
In the same order, the values of `C1=CC2CC1CC2CN1CCC2(CC1)CC2CNc1ccc2nncn2n1` (stereo not shown) [Compound 103, N-[[6-(5-bicyclo[2.2.1]hept-2-enylmethyl)-6-azaspiro[2.5]octan-2-yl]methyl]-[1,2,4]triazolo[4,3-b]pyridazin-6-amine] are 13% and 1.5 µM.

Source of the values: patent publication US12600726B2, “Antagonists of the muscarinic acetylcholine receptor M4” (Vanderbilt University, priority 2017, dated 2026).
